Measured values: patent publication US20040106148A1, “Polypeptides” (priority 2000, published 2004)
Where “and” joins values, the source holds several entries; their conditions need not be identical. Equal entries are not always repeated.

Columns and labels:
Assay in all cases: Surface plasmon resonance (BIACore), GST fusion binding to phosphoinositide in supported lipid monolayer
[1] = molecular target: T1, human TAPP1, full length (FL-TAPP1, accession AF286160), wild type, GST fusion (Homo sapiens, UniProt Q9HB21, T320A); conditions: supported phosphatidylcholine monolayers, 1:1 binding model, NB, no binding detected, read-out: Apparent Kd
T1 construct: made in house; host or cells: human embryonic kidney 293 cells (pEBG-2T)
T1 sequence (Q9HB21 whole entry T320A, the tested form may be a part): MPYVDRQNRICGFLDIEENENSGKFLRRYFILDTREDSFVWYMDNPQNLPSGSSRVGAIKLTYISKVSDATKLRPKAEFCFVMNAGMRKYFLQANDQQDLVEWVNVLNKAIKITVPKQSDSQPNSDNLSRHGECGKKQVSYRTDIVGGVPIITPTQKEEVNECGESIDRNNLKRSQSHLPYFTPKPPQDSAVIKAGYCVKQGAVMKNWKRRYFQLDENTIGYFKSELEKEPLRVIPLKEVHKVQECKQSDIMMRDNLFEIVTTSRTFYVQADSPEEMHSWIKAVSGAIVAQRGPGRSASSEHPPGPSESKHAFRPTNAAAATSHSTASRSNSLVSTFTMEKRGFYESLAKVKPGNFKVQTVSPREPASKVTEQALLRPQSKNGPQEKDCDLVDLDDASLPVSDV
Procedure: (§1) Expression of GST-PH domains in human embryonic kidney 293 cells. […] For the expression of each construct, twenty 10 cm diameter dishes of 293 cells were cultured and each dish transfected with 5 μg of the pEBG-2T construct, using a modified calcium phosphate method. 36 h post-transfection, the cells were lysed in 1 ml of ice-cold Buffer A, the lysates pooled, centrifuged at 4° C. for 10 min at 13,000×g and the GST-fusion proteins were purified by affinity chromatography on glutathione-Sepharose and stored as described above.
(§2) Cloning TAPP1, TAPP2, FAPP1 and PEPP1. Full length human TAPP1, full length mouse TAPP2, partial mouse TAPP1, partial human TAPP2, and full length human and mouse FAPP1 sequences were deduced by sequencing the EST clones listed in Table 3. […] The constructs used to express full length and deletion mutants of TAPP1 and TAPP2 were generated by PCR, using as a template ESTs encoding full length human TAPP1 (accession number AI216176) and full length mouse TAPP2 (accession number AA111410). […]
(§3) Kinetic analyses of the interactions between the GST PH domain fusions and the polyphosphoinositides were made using surface plasmon resonance based procedures as described previously, with the following modifications. […] Data were analysed using the bimolecular interaction model and the global fitting feature of the BIAevaluation 3 software for several sensorgrams at different protein concentrations. […] The relative binding affinities of each protein relative to the binding of full length GST-TAPP1 to PtdIns(3,4)P2 were also calculated.
(§4) We studied the specificity and affinity of interaction of the PH domains for phosphoinositide lipids using either a “protein-lipid overlay” assay (FIG. 2) or the more quantitative surface plasmon resonance based approach (Table 2). […] For the surface plasmon resonance based assay, the apparent Kd values of the GST PH domain fusion proteins resulting from their interaction with a supported lipid monolayer containing a low mole fraction of phosphoinositide, was determined (Table 2).

[2] = molecular target: T2, human TAPP1, full length, mutant R28L (FL-TAPP1 [R28L]), GST fusion (Homo sapiens, UniProt Q9HB21, R28L/T320A); conditions: supported phosphatidylcholine monolayers, 1:1 binding model, read-out: Apparent Kd
T2 construct: wild type and mutant forms of full length (FL); made in house; host or cells: human embryonic kidney 293 cells (pEBG-2T)
T2 sequence (Q9HB21 whole entry R28L/T320A, the tested form may be a part): as the sequence (Q9HB21 whole entry T320A, the tested form may be a part) above, with R28L counted along it
Procedure: as §1, §2, §3, §4

[3] = molecular target: T3, mouse TAPP2, full length (FL-TAPP2, accession AF286161), wild type, GST fusion (Mus musculus, UniProt Q9ERS5); conditions: supported phosphatidylcholine monolayers, 1:1 binding model, NB, no binding detected, read-out: Apparent Kd
T3 construct: made in house; host or cells: human embryonic kidney 293 cells (pEBG-2T)
T3 sequence (Q9ERS5 whole entry, the tested form may be a part): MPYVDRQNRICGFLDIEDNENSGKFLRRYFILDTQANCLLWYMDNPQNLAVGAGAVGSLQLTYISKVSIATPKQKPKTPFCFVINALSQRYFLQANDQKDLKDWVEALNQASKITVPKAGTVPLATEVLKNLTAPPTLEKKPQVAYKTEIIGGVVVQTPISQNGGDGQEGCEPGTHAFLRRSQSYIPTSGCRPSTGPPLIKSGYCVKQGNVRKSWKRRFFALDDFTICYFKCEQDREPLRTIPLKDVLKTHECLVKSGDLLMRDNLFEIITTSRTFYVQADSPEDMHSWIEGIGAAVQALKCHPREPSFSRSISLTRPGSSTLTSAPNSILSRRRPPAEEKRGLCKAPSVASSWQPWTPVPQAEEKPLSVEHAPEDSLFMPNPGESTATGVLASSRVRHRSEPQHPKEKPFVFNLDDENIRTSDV
Procedure: as §1, §2, §3, §4

[4] = molecular target: T4, human TAPP1 C-terminal PH domain (CT-PH TAPP1, residues 95 to 404), GST fusion (Homo sapiens, UniProt Q9HB21, T320A); conditions: supported phosphatidylcholine monolayers, 1:1 binding model, read-out: Apparent Kd
T4 construct: made in house; host or cells: human embryonic kidney 293 cells (pEBG-2T)
T4 sequence (Q9HB21 95-404 T320A): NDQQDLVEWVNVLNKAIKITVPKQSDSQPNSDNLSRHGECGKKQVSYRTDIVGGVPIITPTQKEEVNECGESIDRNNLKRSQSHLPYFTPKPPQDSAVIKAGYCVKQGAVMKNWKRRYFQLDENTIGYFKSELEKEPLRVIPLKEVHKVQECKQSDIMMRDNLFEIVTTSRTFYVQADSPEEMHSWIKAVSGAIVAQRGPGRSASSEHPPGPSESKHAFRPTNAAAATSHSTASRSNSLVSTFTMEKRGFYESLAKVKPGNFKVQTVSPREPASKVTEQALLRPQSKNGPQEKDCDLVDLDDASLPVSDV
From the text: (§5) Cloning of PH domains and preparation of expression constructs. All the human and mouse EST's were obtained from the I.M.A.G.E. Consortium and sequenced. The plant EST (accession number T04439) encoding a full length clone of AtPH1 was obtained from the Arabidopsis Biological Research. Centre (Ohio University). The sequence of each EST was verified and the full length PH domain of each EST was amplified by PCR using the Hi-fidelity PCR system with primers designed to incorporate a Kozak site, an initiating ATG codon followed by a myc epitope tag and a stop codon after the PH domain. […]
as §3
We studied the specificity and affinity of interaction of the PH domains for phosphoinositide lipids using either a “protein-lipid overlay” assay (FIG. 2) or the more quantitative surface plasmon resonance based approach (Table 2). […]

[5] = molecular target: T5, mouse TAPP2 C-terminal PH domain (residues 174 to 425), GST fusion (Mus musculus, UniProt Q9ERS5); conditions: read-out: apparent Kd
T5 construct: made in house; host or cells: human embryonic kidney 293 cells (pEBG-2T)
T5 sequence (Q9ERS5 174-425): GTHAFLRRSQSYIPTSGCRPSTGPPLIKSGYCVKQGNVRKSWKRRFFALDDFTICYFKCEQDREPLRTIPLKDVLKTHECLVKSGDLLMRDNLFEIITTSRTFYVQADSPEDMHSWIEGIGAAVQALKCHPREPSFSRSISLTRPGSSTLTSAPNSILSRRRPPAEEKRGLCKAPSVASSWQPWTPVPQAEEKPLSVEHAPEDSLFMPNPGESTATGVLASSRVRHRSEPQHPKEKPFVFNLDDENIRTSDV
From the text: as §5, §3

CCCCCCCCCCCCCCCC(=O)OC[C@H](COP(=O)(O)O[C@H]1[C@H](O)[C@@H](O)[C@H](OP(=O)(O)O)[C@@H](OP(=O)(O)O)[C@H]1O)OC(=O)CCCCCCCCCCCCCCC [PtdIns(3,4)P2]
Kd [1]: 5 nM and ~5 nM
Kd [2]: 28 nM
Kd [3]: 30 nM
Kd [4]: 27 nM
Kd [5]: 30 nM
